In ChEMBL document CHEMBL5143628, “Enteroviral replication inhibition by N-Alkyl triazolopyrimidinone derivatives through a non-capsid binding mode” (Bioorg Med Chem Lett, 2022):
Calls of active or inactive are those of the source. The calls are words filed in the database; no cut-off is given here.

Key:
[1] = Selectivity index, ratio of CC50 for cytotoxicity against human H1-HeLa cells to EC50 for antiviral activity against Human rhinovirus A21 infected in human H1-HeLa cells; assay type: toxicity, cell-based; conditions: for selectivity ratio: H1-HeLa cells, read-out: Ratio CC50/EC50
[2] = Cytotoxicity against human H1-HeLa cells assessed as reduction in cell viability by MTT assay; assay type: toxicity, cell-based; conditions: H1-HeLa cells
[3] = Selectivity index, ratio of CC50 for cytotoxicity against human H1-HeLa cells to EC50 for antiviral activity against Human rhinovirus A71 infected in human H1-HeLa cells; assay type: toxicity, cell-based; conditions: for selectivity ratio: H1-HeLa cells, read-out: Ratio CC50/EC50
Coxsackievirus B1 = experiment: Antiviral activity against Human coxsackievirus B1 infected in human H1-HeLa cells assessed as reduction in virus induced cytopathic effect incubated for 2 days by MTT assay; assay type: functional, organism-based; conditions: Enterovirus B, 48 h
rhinovirus B14 [4] = experiment: Antiviral activity against Human rhinovirus B14 infected in human H1-HeLa cells assessed as reduction in virus induced cytopathic effect incubated for 3 days by MTT assay; assay type: functional, organism-based
[5] = Antiviral activity against Human rhinovirus A71 infected in human H1-HeLa cells assessed as reduction in virus induced cytopathic effect incubated for 3 days by MTT assay; assay type: functional, cell-based
Poliovirus 3 = experiment: Antiviral activity against Human poliovirus 3 infected in human H1-HeLa cells assessed as reduction in virus induced cytopathic effect incubated for 2 days by MTT assay; assay type: functional, organism-based; conditions: Enterovirus C, 48 h
rhinovirus A21 = experiment: Antiviral activity against Human rhinovirus A21 infected in human H1-HeLa cells assessed as reduction in virus induced cytopathic effect incubated for 3 days by MTT assay; assay type: functional, organism-based
[6] = Selectivity index, ratio of CC50 for cytotoxicity against human H1-HeLa cells to EC50 for antiviral activity against Human rhinovirus B14 infected in human H1-HeLa cells; assay type: toxicity, cell-based; conditions: for selectivity ratio: H1-HeLa cells, read-out: Ratio CC50/EC50
rhinovirus A1B = experiment: Antiviral activity against Rhinovirus A1B infected in human H1-HeLa cells assessed as reduction in virus induced cytopathic effect incubated for 3 days by MTT assay; assay type: functional, organism-based; conditions: Rhinovirus A, 72 h
rhinovirus B86 = experiment: Antiviral activity against Human rhinovirus 86 infected in human H1-HeLa cells assessed as reduction in virus induced cytopathic effect incubated for 3 days by MTT assay; assay type: functional, organism-based; conditions: Rhinovirus B, 72 h
CYP1A2 = target: T1, CYP1A2 (Homo sapiens, UniProt P05177); experiment: Inhibition of human CYP1A2 at 10 uM incubated for 20 mins in presence of NADPH regenerating system by luminescence assay relative to control; assay type: ADME
T1 sequence (P05177 whole entry): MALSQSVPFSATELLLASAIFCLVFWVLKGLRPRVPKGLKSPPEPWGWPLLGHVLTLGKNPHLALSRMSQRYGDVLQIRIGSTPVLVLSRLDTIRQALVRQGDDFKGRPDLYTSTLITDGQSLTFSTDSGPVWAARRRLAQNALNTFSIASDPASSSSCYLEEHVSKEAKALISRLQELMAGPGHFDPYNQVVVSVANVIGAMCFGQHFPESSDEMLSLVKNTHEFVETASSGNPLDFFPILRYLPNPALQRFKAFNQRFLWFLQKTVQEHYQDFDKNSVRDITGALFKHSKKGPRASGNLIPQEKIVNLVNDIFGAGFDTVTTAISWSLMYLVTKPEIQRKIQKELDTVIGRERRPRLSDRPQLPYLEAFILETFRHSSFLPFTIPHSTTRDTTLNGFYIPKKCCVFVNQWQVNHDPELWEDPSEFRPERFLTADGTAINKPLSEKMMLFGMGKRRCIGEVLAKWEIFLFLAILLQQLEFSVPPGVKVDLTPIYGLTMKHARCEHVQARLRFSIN

rhinovirus A16 = experiment: Antiviral activity against Human rhinovirus 16 infected in human H1-HeLa cells assessed as reduction in virus induced cytopathic effect incubated for 3 days by MTT assay; assay type: functional, organism-based; conditions: Rhinovirus A, 72 h
Rhinovirus B [7] = experiment: Antiviral activity against Rhinovirus B27 infected in human H1-HeLa cells assessed as reduction in virus induced cytopathic effect incubated for 3 days by MTT assay; assay type: functional, organism-based; conditions: Rhinovirus B, 27, H1-HeLa, 72 h
CYP3A4 = CYP3A4 (Homo sapiens, UniProt P08684); experiment: Inhibition of human CYP3A4 at 10 uM incubated for 20 mins in presence of NADPH regenerating system by luminescence assay relative to control; assay type: ADME
Sequence of CYP3A4 (P08684 whole entry): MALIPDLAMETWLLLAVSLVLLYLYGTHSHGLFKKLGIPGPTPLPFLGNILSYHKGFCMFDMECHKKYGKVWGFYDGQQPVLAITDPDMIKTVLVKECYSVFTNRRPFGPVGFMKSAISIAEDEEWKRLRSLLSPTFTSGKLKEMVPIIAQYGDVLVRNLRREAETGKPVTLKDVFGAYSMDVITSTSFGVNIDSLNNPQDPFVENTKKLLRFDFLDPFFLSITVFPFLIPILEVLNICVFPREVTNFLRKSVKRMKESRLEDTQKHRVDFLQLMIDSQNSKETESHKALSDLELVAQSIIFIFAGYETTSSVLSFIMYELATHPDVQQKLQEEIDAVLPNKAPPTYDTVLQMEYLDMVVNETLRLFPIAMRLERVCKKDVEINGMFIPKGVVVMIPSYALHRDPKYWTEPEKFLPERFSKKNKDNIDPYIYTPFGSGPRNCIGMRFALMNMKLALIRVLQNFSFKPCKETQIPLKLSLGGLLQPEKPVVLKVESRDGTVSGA

[8] = Cmax in Sprague-Dawley rat at 10 mg/kg, po by LC/MS/MS analysis; assay type: ADME, organism-based; parameters: dose 10 mg/kg, route po; conditions: in vivo
[9] = Antiviral activity against Human rhinovirus 42 infected in human H1-HeLa cells assessed as reduction in virus induced cytopathic effect incubated for 3 days by MTT assay; assay type: functional, cell-based; conditions: Rhinovirus B, 72 h
[10] = AUCinfinity in Sprague-Dawley rat at 10 mg/kg, po by LC/MS/MS analysis; assay type: ADME, organism-based; parameters: time infinity, dose 10 mg/kg, route po; conditions: in vivo
[11] = Inhibition of Enterovirus A71 replicon RNA transfected in human H1-HeLa cells assessed as reduction in replication measured after 8 hrs by One-Glo luciferase assay; assay type: cell-based; conditions: Enterovirus A
[12] = Cytotoxicity against human H1-HeLa cells transfected with Enterovirus A71 replicon RNAs assessed as reduction in cell viability by CellTiter-Glo luminescent cell viability assay; assay type: toxicity, cell-based
[13] = Metabolic stability in pooled rat liver microsomes at 1 uM incubated for 30 mins in presence of NADPH regenerating system by LC/MS/MS analysis; assay type: ADME, Microsome; conditions: 0.5 h
[14] = AUClast in Sprague-Dawley rat at 10 mg/kg, po by LC/MS/MS analysis; assay type: ADME, organism-based; parameters: time 0 - last, dose 10 mg/kg, route po; conditions: in vivo
CYP2D6 = CYP2D6 (Homo sapiens, UniProt P10635); experiment: Inhibition of human CYP2D6 at 10 uM incubated for 20 mins in presence of NADPH regenerating system by luminescence assay relative to control; assay type: ADME
Sequence of CYP2D6 (P10635 whole entry): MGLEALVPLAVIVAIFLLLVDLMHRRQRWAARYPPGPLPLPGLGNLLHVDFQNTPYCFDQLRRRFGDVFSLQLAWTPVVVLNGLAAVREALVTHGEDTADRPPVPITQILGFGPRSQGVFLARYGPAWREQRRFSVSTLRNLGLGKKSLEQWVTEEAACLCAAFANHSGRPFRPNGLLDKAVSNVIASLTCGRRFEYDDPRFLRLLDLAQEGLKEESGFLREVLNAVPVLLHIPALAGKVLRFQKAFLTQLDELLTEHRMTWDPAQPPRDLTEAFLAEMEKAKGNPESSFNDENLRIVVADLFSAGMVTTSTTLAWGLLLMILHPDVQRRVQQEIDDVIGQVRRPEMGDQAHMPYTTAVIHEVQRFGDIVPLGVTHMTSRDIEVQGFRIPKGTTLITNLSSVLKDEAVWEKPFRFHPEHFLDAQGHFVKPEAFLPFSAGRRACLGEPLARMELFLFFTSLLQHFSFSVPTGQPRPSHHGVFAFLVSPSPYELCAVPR

Rhinovirus B [15] = experiment: Antiviral activity against Rhinovirus B91 infected in human H1-HeLa cells assessed as reduction in virus induced cytopathic effect incubated for 3 days by MTT assay; assay type: functional, organism-based; conditions: Rhinovirus B, 91, H1-HeLa, 72 h
Rhinovirus A [16] = experiment: Antiviral activity against Rhinovirus A33 infected in human H1-HeLa cells assessed as reduction in virus induced cytopathic effect incubated for 3 days by MTT assay; assay type: functional, cell-based; conditions: Rhinovirus A, 33, H1-HeLa, 72 h
[17] = Tmax in Sprague-Dawley rat at 10 mg/kg, po by LC/MS/MS analysis; assay type: ADME, organism-based; conditions: in vivo
CYP2C9 = CYP2C9 (Homo sapiens, UniProt P11712); experiment: Inhibition of human CYP2C9 at 10 uM incubated for 20 mins in presence of NADPH regenerating system by luminescence assay relative to control; assay type: ADME
Sequence of CYP2C9 (P11712 whole entry): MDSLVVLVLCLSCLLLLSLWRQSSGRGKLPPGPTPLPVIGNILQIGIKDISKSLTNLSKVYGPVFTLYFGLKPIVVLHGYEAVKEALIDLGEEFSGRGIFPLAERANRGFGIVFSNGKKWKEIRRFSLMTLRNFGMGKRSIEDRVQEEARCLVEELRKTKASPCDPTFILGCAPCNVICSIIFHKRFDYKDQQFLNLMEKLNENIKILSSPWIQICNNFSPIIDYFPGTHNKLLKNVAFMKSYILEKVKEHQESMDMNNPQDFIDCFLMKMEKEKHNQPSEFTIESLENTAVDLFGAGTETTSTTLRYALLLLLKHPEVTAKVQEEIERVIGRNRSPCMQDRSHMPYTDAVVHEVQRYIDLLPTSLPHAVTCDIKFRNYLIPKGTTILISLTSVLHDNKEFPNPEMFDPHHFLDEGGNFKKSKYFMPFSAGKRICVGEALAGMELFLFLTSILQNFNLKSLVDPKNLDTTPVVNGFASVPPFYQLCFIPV

Rhinovirus A [18] = experiment: Antiviral activity against Rhinovirus A98 infected in human H1-HeLa cells assessed as reduction in virus induced cytopathic effect incubated for 3 days by MTT assay; assay type: functional, cell-based; conditions: Rhinovirus A, 98, H1-HeLa, 72 h
CYP2C19 = CYP2C19 (Homo sapiens, UniProt P33261); experiment: Inhibition of human CYP2C19 at 10 uM incubated for 20 mins in presence of NADPH regenerating system by luminescence assay relative to control; assay type: ADME
Sequence of CYP2C19 (P33261 whole entry): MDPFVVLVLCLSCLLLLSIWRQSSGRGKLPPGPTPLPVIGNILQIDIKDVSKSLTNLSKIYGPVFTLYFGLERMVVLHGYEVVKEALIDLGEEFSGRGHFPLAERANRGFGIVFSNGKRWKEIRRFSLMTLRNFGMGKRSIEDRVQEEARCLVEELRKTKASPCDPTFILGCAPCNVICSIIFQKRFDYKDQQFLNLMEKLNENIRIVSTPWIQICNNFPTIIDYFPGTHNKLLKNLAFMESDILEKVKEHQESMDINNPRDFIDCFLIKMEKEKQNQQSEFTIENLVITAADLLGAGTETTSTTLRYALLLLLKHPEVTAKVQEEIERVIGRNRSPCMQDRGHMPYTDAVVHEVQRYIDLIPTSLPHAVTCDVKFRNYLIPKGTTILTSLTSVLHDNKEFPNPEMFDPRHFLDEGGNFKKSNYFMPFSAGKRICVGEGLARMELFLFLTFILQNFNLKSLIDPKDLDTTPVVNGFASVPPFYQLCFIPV

rhinovirus A2 = experiment: Antiviral activity against Human rhinovirus 2 infected in human H1-HeLa cells assessed as reduction in virus induced cytopathic effect incubated for 3 days by MTT assay; assay type: functional, organism-based; conditions: Rhinovirus A, 72 h
[19] = Metabolic stability in pooled human liver microsomes at 1 uM incubated for 30 mins in presence of NADPH regenerating system by LC/MS/MS analysis; assay type: ADME, Microsome; conditions: 0.5 h
[20] = Half life in Sprague-Dawley rat at 10 mg/kg, po by LC/MS/MS analysis; assay type: ADME, organism-based; conditions: in vivo
rhinovirus B14 [21] = experiment: Antiviral activity against Human rhinovirus B14 infected in human H1-HeLa cells assessed as reduction in viral replication by measuring viral production measured 3 days post infection by crystal violet staining based plaque reduction assay; assay type: functional, organism-based; conditions: dose 0.4-30 µM, time 3.0 day, DDE = dose-dependent effect
rhinovirus B14 [22] = experiment: Antiviral activity against Human rhinovirus B14 infected in human H1-HeLa cells assessed as reduction in viral titre at 1 uM pretreated for 1 hr followed by viral infection and measured immediately by time-of-addition assay; assay type: functional, organism-based
rhinovirus B14 [23] = experiment: Antiviral activity against Human rhinovirus B14 infected in human H1-HeLa cells assessed as reduction in viral titre at early stage at 10 uM pretreated for 1 hr followed by viral infection and measured after 9 hrs by time-of-addition assay; assay type: functional, organism-based
rhinovirus B14 [24] = experiment: Antiviral activity against Human rhinovirus B14 infected in human H1-HeLa cells assessed as reduction in viral replication by measuring viral titre measured 3 days post infection by crystal violet staining based plaque reduction assay; assay type: functional, organism-based; conditions: dose 1.1-30 µM, time 3.0 day, DDE = dose-dependent effect
rhinovirus B14 [25] = experiment: Antiviral activity against Human rhinovirus B14 infected in human H1-HeLa cells assessed as reduction in viral titre at 0.1 uM pretreated for 1 hr followed by viral infection and measured after 6 hrs by time-of-addition assay; assay type: functional, organism-based

CCn1c(=O)c2c3c(sc2n2cnnc12)CC(C(C)(C)C)CC3 (stereo unspecified)
selectivity ratio [1]: > 6.8 | CC50 [2]: > 100 µM | selectivity ratio [3]: > 27 | EC50 (Coxsackievirus B1): > 100 µM | EC50 (rhinovirus B14 [4]; Rhinovirus B, H1-HeLa, 72 h): 14.1 µM | EC50 ([5]; Rhinovirus A, H1-HeLa, 72 h): 3.7 µM | EC50 (Poliovirus 3): 3.8 µM | EC50 (rhinovirus A21; Rhinovirus A, H1-HeLa, 72 h): 14.7 µM | selectivity ratio [6]: > 7

Cn1c(=O)c2c3c(sc2n2cnnc12)CC(C(C)(C)C)CC3 (stereo unspecified)
CC50 [2]: > 100 µM | selectivity ratio [3]: > 4.3 | EC50 (Coxsackievirus B1): > 100 µM | EC50 (rhinovirus B14 [4]; Rhinovirus B, H1-HeLa, 72 h): > 100 µM | EC50 ([5]; Rhinovirus A, H1-HeLa, 72 h): 23 µM | EC50 (Poliovirus 3): > 100 µM | EC50 (rhinovirus A21; Rhinovirus A, H1-HeLa, 72 h): > 100 µM

CCCn1c(=O)c2c3c(sc2n2cnnc12)CC(C(C)(C)C)CC3 (stereo in doubt) [listing 1 of 2 here]
EC50 (rhinovirus A1B): 1.9 µM | EC50 (rhinovirus B86): 1.5 µM | inhibition at 20 min, 10 µM (CYP1A2): 7.46% | EC50 (rhinovirus A16): 1.9 µM | EC50 (Rhinovirus B [7]): 1.6 µM | inhibition at 20 min, 10 µM (CYP3A4): 3.24% | Cmax [8]: 20 ng/mL | Ratio CC50/EC50 [1]: 42.2 | EC50 [9]: 1.6 µM | AUC(0-inf) [10]: 200 ng·h/mL | IC50 [11]: 1.7 µM | CC50 [12]: > 30 µM | Stability [13]: Stable | CC50 [2]: 77.1 µM | selectivity ratio [3]: 33.2 | AUC(0-t) [14]: 180 ng·h/mL | inhibition at 20 min, 10 µM (CYP2D6): 1.26% | EC50 (Rhinovirus B [15]): 1.7 µM | EC50 (Coxsackievirus B1): 19.8 µM | EC50 (rhinovirus B14 [4]; h1-hela): 1.8 µM | EC50 (Rhinovirus A [16]): 1.5 µM | Tmax [17]: 3.5 h | EC50 ([5]; Rhinovirus A, H1-HeLa, 72 h): 1.6 µM | EC50 (Poliovirus 3): 1.67 µM | inhibition at 20 min, 10 µM (CYP2C9): 11.9% | EC50 (Rhinovirus A [18]): 1.9 µM | inhibition at 20 min, 10 µM (CYP2C19): 7.19% | EC50 (rhinovirus A21; h1-hela): 2 µM | Ratio CC50/EC50 [6]: 37.2 | EC50 (rhinovirus A2): 1.9 µM | Stability [19]: Stable | half-life [20]: 8.89 h

Cc1cc(CCCOc2c(C)cc(-c3noc(C(F)(F)F)n3)cc2C)on1 [PLECONARIL]
EC50 (rhinovirus A1B): 0.24 µM | EC50 (rhinovirus B86): 0.29 µM | EC50 (rhinovirus A16): 0.51 µM | selectivity ratio [1]: 161 | Activity (rhinovirus B14 [21]): Dde | CC50 [2]: 20.8 µM | selectivity ratio [3]: 1700 | EC50 (Rhinovirus B [15]): 1.4 µM | EC50 (rhinovirus B14 [4]; Rhinovirus B, H1-HeLa, 72 h): 0.2 µM | EC50 (Rhinovirus A [16]): 0.45 µM | EC50 ([5]; Rhinovirus A, H1-HeLa, 72 h): 0.017 µM | EC50 (rhinovirus A21; Rhinovirus A, H1-HeLa, 72 h): 0.17 µM | selectivity ratio [6]: 145 | EC50 (rhinovirus A2): 0.08 µM | Activity (rhinovirus B14 [22]): Active

CCCn1c(=O)c2c3c(sc2n2cnnc12)CC(C(C)(C)C)CC3 (stereo in doubt) [listing 2 of 2 here]
Activity (rhinovirus B14 [23]): Active | Activity (rhinovirus B14 [24]): Dde

CCCn1c(=O)c2c3c(sc2n2cnnc12)CC(C(C)(C)C)CC3 (stereo in doubt; 2c-2)
Ratio CC50/EC50 [1]: > 12.9 | Ratio CC50/EC50 [3]: > 52.6 | EC50 (rhinovirus B14 [4]; h1-hela): 7.8 µM | EC50 ([5]; h1-hela): 1.9 µM | EC50 (rhinovirus A21; h1-hela): 7.7 µM | Ratio CC50/EC50 [6]: > 12.8

CCOC(=O)/C=C/[C@H](CC1CCNC1=O)NC(=O)[C@@H](CC(=O)[C@@H](NC(=O)c1cc(C)on1)C(C)C)Cc1ccc(F)cc1 (stereo partly specified)
Activity (rhinovirus B14 [25]): Active

CCCCCCn1c(=O)c2c3c(sc2n2cnnc12)CC(C(C)(C)C)CC3 (stereo unspecified)
CC50 [2]: > 100 µM | EC50 (rhinovirus B14 [4]; Rhinovirus B, H1-HeLa, 72 h): > 100 µM | EC50 ([5]; Rhinovirus A, H1-HeLa, 72 h): > 100 µM | EC50 (rhinovirus A21; Rhinovirus A, H1-HeLa, 72 h): > 100 µM
